These are literature values, as cited in publication PMC10675484, “Characterization and Pharmacokinetic Assessment of a New Berberine Formulation with Enhanced Absorption In Vitro and in Human Volunteers” (Pharmaceutics, 2023).

On the set-up of data set [1]: method as in PMID 26851175. Conditions: orally administered berberine.
Assay in data set [2]: not given
This is another data set of the same source.

Assay in data set [3]: not given
This is another data set of the same source.

Setting [4] is: 500 mg berberine, within a 2 h period.
Where [5] appears, read: 20 study participants, oral 400 mg of berberine.
[6] abbreviates: human volunteers, doses similar to the current study.

Structures are written as SMILES. Like-named read-outs stand apart in the source and are kept apart here.

As for `COc1ccc2c(c1OC)CN1CCc3cc4c(cc3C1=C2)OCO4` [DHB, dihydroberberine], under “study participants, during the study period”, the “Glucose and insulin response” value is on record as “no significant changes”.
Take `COc1ccc2cc3[n+](cc2c1OC)CCc1cc2c(cc1-3)OCO2` [berberine, 2,3-methylenedioxy-9,10-dimethoxy-protoberberine]: under setting [4], the “AUC (berberine)” value is 42.3 ± 17.6 ng·h/mL and the “Cmax (berberine)” value is 0.4 ± 0.17 ng/mL. Also, the Cmax (500 mg of berberine in 10 volunteers) was 0.07 nM. In addition, under setting [5], the “Mean AUC0–∞” value is around 9.2 ng·h/mL and the “Mean Cmax” value is “approx. 0.4 ng/mL”. The “Fraction of orally administered dose entering the systemic circulation” value (human pharmacokinetic studies) is reported as at most 5%. Besides, under setting [6], the “AUC (total berberine)” value is 1.217 ± 0.129 ng·h/mL and the “Cmax (total berberine)” value is 0.31688 ± 0.0266 ng/mL. The Elimination half-life (oral administration in humans) is given as 2.94 ± 0.14 h. In addition, in data set [1], the “Fraction metabolized in the enterocytes” value is listed as “approx. 43.5%”. Moreover, in data set [2] (oral administration in rats, ref 23, 24), the Absolute bioavailability is on record as below 1%. Besides, in data set [2] (oral administration in rats, ref 24), the Absolute bioavailability is listed as 0.68%. Besides, the “Absorption rate in the gut” value in data set [2] (oral administration in rats, ref 25) is “approx. 33.6%”. The “AUC in the liver relative to plasma” value in data set [2] (orally administered berberine 200 mg/kg) is given as 10 fold.
Regarding `COc1ccc2cc3[n+](cc2c1OC)CCc1cc2c(cc1-3)OCO2` [BCl], in data set [3], the “Biopharmaceutical Classification System class” value is recorded as “class III” and the Solubility in water result is on record as “approximately 1.3 mg/mL”.
